Structures are written as SMILES.

recombinant human integrin αVβ6, sequence (P06756 31-992): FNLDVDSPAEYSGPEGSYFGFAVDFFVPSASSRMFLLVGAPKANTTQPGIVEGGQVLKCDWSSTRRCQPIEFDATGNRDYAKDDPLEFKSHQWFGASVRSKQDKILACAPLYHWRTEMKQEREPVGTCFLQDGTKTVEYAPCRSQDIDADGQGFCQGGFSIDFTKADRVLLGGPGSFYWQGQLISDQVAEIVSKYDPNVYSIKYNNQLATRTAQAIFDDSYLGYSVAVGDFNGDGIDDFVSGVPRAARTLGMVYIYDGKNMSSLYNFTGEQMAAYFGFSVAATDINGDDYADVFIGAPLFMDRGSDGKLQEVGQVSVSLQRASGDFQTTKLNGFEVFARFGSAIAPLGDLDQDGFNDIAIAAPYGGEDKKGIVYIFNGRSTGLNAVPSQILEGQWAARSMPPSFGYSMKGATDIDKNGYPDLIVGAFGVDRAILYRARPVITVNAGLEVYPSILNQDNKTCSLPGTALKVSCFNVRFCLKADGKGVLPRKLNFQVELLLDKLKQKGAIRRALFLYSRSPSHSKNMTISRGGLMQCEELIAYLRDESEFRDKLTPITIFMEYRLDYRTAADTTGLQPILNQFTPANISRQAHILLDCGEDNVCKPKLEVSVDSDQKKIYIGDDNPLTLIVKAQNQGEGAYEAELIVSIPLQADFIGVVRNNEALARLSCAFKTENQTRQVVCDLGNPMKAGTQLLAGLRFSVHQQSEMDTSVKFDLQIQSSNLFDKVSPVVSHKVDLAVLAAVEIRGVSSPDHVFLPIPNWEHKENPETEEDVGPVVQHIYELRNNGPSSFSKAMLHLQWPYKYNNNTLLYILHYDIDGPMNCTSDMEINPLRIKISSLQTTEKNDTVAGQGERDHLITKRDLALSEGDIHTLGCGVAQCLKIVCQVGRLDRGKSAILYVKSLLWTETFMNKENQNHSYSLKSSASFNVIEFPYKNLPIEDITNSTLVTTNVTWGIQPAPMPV
recombinant human integrin αVβ6, sequence (P18564 22-707): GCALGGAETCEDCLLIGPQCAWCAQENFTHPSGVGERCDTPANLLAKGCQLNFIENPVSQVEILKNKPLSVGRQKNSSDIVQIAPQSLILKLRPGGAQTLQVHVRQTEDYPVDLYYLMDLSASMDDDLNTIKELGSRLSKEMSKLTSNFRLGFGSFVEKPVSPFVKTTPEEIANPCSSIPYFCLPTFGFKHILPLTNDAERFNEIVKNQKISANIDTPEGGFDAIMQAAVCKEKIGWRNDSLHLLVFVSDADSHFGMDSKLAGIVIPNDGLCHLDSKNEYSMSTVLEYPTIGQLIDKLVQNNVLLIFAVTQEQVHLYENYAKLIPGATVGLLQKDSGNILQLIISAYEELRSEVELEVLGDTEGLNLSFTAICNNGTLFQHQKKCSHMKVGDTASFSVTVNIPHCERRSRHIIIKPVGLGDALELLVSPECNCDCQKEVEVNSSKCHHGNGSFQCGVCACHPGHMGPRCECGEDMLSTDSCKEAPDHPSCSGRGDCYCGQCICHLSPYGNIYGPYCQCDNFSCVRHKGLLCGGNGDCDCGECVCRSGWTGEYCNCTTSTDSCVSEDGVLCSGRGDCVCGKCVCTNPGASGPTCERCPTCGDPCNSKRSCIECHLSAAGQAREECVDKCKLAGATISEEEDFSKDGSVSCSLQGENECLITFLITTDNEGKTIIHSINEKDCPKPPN

The assay concerns the target recombinant human integrin αVβ6 (Homo sapiens (Human), UniProt P06756+P18564). As to the kind of experiment: Solid phase integrin αVβ6 binding assay. The note with it: inhibition of recombinant TGFβ1 LAP binding to coated integrin, IC50 presented in four ranges, read-out: αvβ6 Inhibition IC50 (nM) - range. As for the experimental part:
(§1) Microplates were coated with recombinant human integrin αVβ6 (2 μg/mL) in PBS (100 μL/well 25° C., overnight). The coating solution was removed, washed with wash buffer (0.05% Tween 20; 0.5 mM MnCl2; in 1×TBS). The plate was blocked with 200 μL/well of Block Buffer (1% BSA; 5% sucrose; 0.5 mM MnCl2; in 1×TBS) at 37° C. for 2 h. Dilutions of testing compounds and recombinant TGFβ1 LAP (0.67 μg/mL) in binding buffer (0.05% BSA; 2.5% sucrose; 0.5 mM MnCl2; in 1×TBS) were added. The plate was incubated for 2 hours at 25° C., washed, and incubated for 1 hour with Biotin-Anti-hLAP. Bound antibody was detected by peroxidase-conjugated streptavidin. The IC50 values for testing compounds were calculated by a four-parameter logistic regression.
The compounds tested were compound samples prepared according to procedures described in the Synthetic Examples section, with the stereochemical purity as indicated in the Examples.
as §1, with “A third series of exemplary compounds was selected for testing in the solid phase integrin αVβ6 binding assay. The compounds tested were compound samples prepared according to procedures described in the Synthetic Examples section, with the stereochemical purity as indicated in the Examples. As in Example B1, microplates were” for “Microplates were”, “(0.67 g/mL)” for “(0.67 μg/mL)”
As to `CO[C@H](C)CN(CCCCc1ccc2c(n1)NCCC2)CC[C@H](Nc1nccnc1C#N)C(=O)O` [Compound 76, (S)-2-((3-cyanopyrazin-2-yl)amino)-4-(((R)-2-methoxypropyl) (4-(5,6,7,8-tetrahydro-1,8-naphthyridin-2-yl)butyl)amino) butanoic Acid], the IC50 is less than 50 nM.
As for `O=C(O)[C@H](CCN(CCCCc1ccc2c(n1)NCCC2)CCOc1cc(F)cc(F)c1)Nc1ncnc2ccccc12` [Compound 47, (S)-4-((2-(3,5-difluorophenoxy)ethyl) (4-(5,6,7,8-tetrahydro-1,8-naphthyridin-2-yl)butyl)amino)-2-(quinazolin-4-ylamino) butanoic Acid], the IC50 was less than 50 nM.
The figure for `COC[C@@H](F)CN(CCCCc1ccc2c(n1)NCCC2)CC[C@H](Nc1cc(-n2cccn2)ncn1)C(=O)O` [Compound 108, (S)-2-((6-(1H-pyrazol-1-yl)pyrimidin-4-yl)amino)-4-(((S)-2-fluoro-3-methoxypropyl) (4-(5,6,7,8-tetrahydro-1,8-naphthyridin-2-yl)butyl)amino) butanoic Acid] is more than 1000 nM.
Take `COCCN(CCCCc1ccc2c(n1)NCCC2)CC[C@H](Nc1nc(C(F)(F)F)nc2ccccc12)C(=O)O` [Compound 14, (S)-4-((2-methoxyethyl) (4-(5,6,7,8-tetrahydro-1,8-naphthyridin-2-yl)butyl)amino)-2-((2-(trifluoromethyl)quinazolin-4-yl)amino) butanoic Acid]: the IC50 was less than 50 nM.
Under `CS(=O)(=O)CCN(CCCCc1ccc2c(n1)NCCC2)CC[C@H](Nc1cc(-n2cccn2)ncn1)C(=O)O` [Compound 126, (S)-2-((6-(1H-pyrazol-1-yl)pyrimidin-4-yl)amino)-4-((2-(methylsulfonyl)ethyl) (4-(5,6,7,8-tetrahydro-1,8-naphthyridin-2-yl)butyl)amino) butanoic Acid] stands more than 1000 nM; under `COCCN(CCCCc1ccc2c(n1)NCCC2)CC[C@H](Nc1ncnc2ccc(F)cc12)C(=O)O` [Compound 19, (S)-2-((6-fluoroquinazolin-4-yl)amino)-4-((2-methoxyethyl) (4-(5,6,7,8-tetrahydro-1,8-naphthyridin-2-yl)butyl)amino) butanoic Acid], less than 50 nM.
Under `Cc1ccc(OCCN(CCCCc2ccc3c(n2)NCCC3)CC[C@H](Nc2ncnc3cccnc23)C(=O)O)cn1` [Compound 57, (S)-4-((2-((6-methylpyridin-3-yl)oxy)ethyl) (4-(5,6,7,8-tetrahydro-1,8-naphthyridin-2-yl)butyl)amino)-2-(pyrido[3,2-d]pyrimidin-4-ylamino) butanoic Acid] stands less than 50 nM.
On to `O=C(O)[C@H](CCN(CCCCc1ccc2c(n1)NCCC2)CCOc1ccccc1)Nc1ncc(C(F)(F)F)cn1` [Compound 89, (S)-4-((2-phenoxyethyl) (4-(5,6,7,8-tetrahydro-1,8-naphthyridin-2-yl)butyl)amino)-2-((5-(trifluoromethyl)pyrimidin-2-yl)amino) butanoic Acid], for which the IC50 was less than 50 nM.
`O=C(O)[C@H](CCN(CCCCc1ccc2c(n1)NCCC2)CC(F)F)Nc1nc(-c2cccnc2)nc2ccccc12` [Compound 99, (S)-4-((2,2-difluoroethyl) (4-(5,6,7,8-tetrahydro-1,8-naphthyridin-2-yl)butyl)amino)-2-((2-(pyridin-3-yl)quinazolin-4-yl)amino) butanoic Acid]: the IC50 lay in the range of 250 to 1000 nM.
For `O=C(O)[C@H](CCN(CCO)CCCCc1ccc2c(n1)NCCC2)Nc1ncnc2ccccc12` [Compound 75, (S)-4-((2-hydroxyethyl) (4-(5,6,7,8-tetrahydro-1,8-naphthyridin-2-yl)butyl)amino)-2-(quinazolin-4-ylamino) butanoic Acid], the IC50 is less than 50 nM.
On to `COCCN(CCCCc1ccc2c(n1)NCCC2)CC[C@H](Nc1ncnc2cc(F)c(F)cc12)C(=O)O` [Compound 21, (S)-2-((6,7-difluoroquinazolin-4-yl)amino)-4-((2-methoxyethyl) (4-(5,6,7,8-tetrahydro-1,8-naphthyridin-2-yl)butyl)amino) butanoic Acid], for which the IC50 was less than 50 nM.

(Values after patent US10793564B2, “Amino acid compounds and methods of use” (Pliant Therapeutics, Inc., priority 2018, dated 2020).)
